In patent US5817670A, “Naphthyridine derivatives and pharmaceutical compositions thereof” (Yamanouchi Pharmaceutical Co., Ltd., priority 1994, dated 1998) one finds IC50 data, which are given here for 14 compounds.

Structures can show the parent of a compound that is named as a salt.

For one experiment, the target named is type I phosphodiesterase. Nature of the experiment: Phosphodiesterase inhibition activity (in vitro), Type I. It is filed as biochemical, rat. The text has this:
(§1) (A) In order to evaluate selectivity of the compounds of the present invention for type IV phosphodiesterase, types I, II, III and V phosphodiesterase isozymes were purified in the following manner.
(§2) 1) Solutions containing various phosphodiesterase (types I, II and III) isozymes were purified from rat heart muscle cells in the following manner. Under ether anesthesia, Wistar rat was subjected to thoracotomy to excise the heart. After removing blood by perfusion with physiological saline supplemented with heparin (1 unit/ml), the heart was finely chopped with scissors. This was suspended in buffer A (20 mM Bis-Tris, 5 mM dithioerythritol, 2 mM EGTA and 50 mM sodium acetate, pH 6.5) containing a protease inhibitor (50 μM phenyl-methyl-sulfonyl-fluoride, 5 μM pepstatin A, 40 μM leupeptin, 20 μM aprotinin or 2 mM benzamidine) and then the cells were disrupted using polytron and sonicator and subjected to ultracentrifugation (4° C., 100,000×g, 60 minutes) to give a soluble fraction.
(§3) 2) Solutions containing various phosphodiesterase isozymes were obtained from the thus obtained soluble fraction in the following manner. The thus, obtained soluble fraction was applied to a column of 1.6×10.0 cm packed with Q Sepharose which had been equilibrated with buffer A. Next, said column was washed with 300 ml of buffer A to remove non-absorbed protein. Phosphodiesterase was eluted with 200 ml of buffer A having 0.05 to 1.25M linear gradient of sodium acetate to collect about 40 fractions each containing 5.0 ml eluate. Each fraction was checked for cAMP- and cGMP-metabolizing phosphodiesterase activities. Of these fractions, a fraction having only cAMP-metabolizing activity and showing disappearance of the metabolizing activity by 0.1 μM cilostamide (a type III phosphodiesterase selective inhibitor) was used as the type III phosphodiesterase. […] These fractions were separately collected to be used as phosphodiesterase (types I, II and III) stock solutions for the examination of selectivity. p1 3) A solution containing type V phosphodiesterase was prepared from peripheral blood of a healthy person in the following manner. A 200 ml portion of physiological saline supplemented with dextran (3%) was added to 500 ml of heparinized peripheral blood and incubated at 37° C. for 40 minutes to effect precipitation of erythrocytes. The supernatant fluid after precipitation of erythrocytes was recovered and centrifuged once, and the resulting precipitate was suspended in buffer B (140 mM NaCl, 5 mM KCl, 5 mm glucose and 10 mM HEPES, pH 7.4), overlaid on a solution for density gradient centrifugation use (Ficoll solution) and then centrifuged at room temperature for 40 minutes at 450×g, thereby separating monocyte fraction and granulocyte fraction. The granulocyte fraction was washed once with buffer C (140 mM NaCl, 5 mM KCl, 1 mM CaCl2, 1 mM MgCl2, 5 mM glucose and 10 mM HEPES, pH 7.4) and suspended in buffer D (20 mM Bis-Tris, 5 mM dithioerythritol, 2 mM EGTA and 50 mM sodium acetate, pH 6.5) containing a protease inhibitor (40 μM leupeptin, 5 μM pepstatin A, 20 μM aprotinin, 50 μM phenyl-methyl-sulfonyl-fluoride or 2 mM benzamidine) and then the cells were disrupted using polytron and sonicator and subjected to ultracentrifugation (4° C., 100,000×g, 60 minutes) to give a soluble fraction.
(§4) (B) Inhibitory activities were measured using the thus obtained stock solutions of various phosphodiesterase isozymes.
(§5) 1) A predetermined amount of each compound to be tested was subjected to 10 minutes of reaction at 30° C. in a reaction mixture containing 40 mM Tris-HCl (pH 8.0), 5 mM MgCl2, 4 mM 2-mercaptoethanol, 10 μM rolipram (a type IV phosphodiesterase selective inhibitor), 1 μM cAMP, 10 nM ^3 H-cAMP (in the case of type V phosphodiesterase, 1 μM cAMP and 10 nM ^3 H-cAMP are replaced by 1 μM cGMP and 100 nM ^3 H-cGMP) and each of the isozyme stock solutions. […]

The target of experiment [1] is type III phosphodiesterase. Nature of the experiment: Phosphodiesterase inhibition activity (in vitro), Type III. It is filed as biochemical, rat.
Source text: as §1, §2, §3, §4, §5

Experiment [2] deals with type IV phosphodiesterase. Description: Phosphodiesterase inhibition activity (in vitro), Type IV. It is filed as biochemical, human (peripheral blood of a healthy person). As to the method: (1) Method for measuring type IV phosphodiesterase inhibition activity
The following assay was used for the evaluation of the capability of the compounds of the present invention to inhibit type IV phosphodiesterase.
1) Physiological saline (200 ml) supplemented with dextran (3%) was added to 500 ml of heparinized peripheral blood of a healthy person and incubated at 37° C. for 40 minutes to effect precipitation of erythrocytes. The supernatant after precipitation of erythrocytes was recovered and centrifuged once, and the resulting precipitate was suspended in buffer A (140 mM NaCl, 5 mM KCl, 5 mM glucose and 10 mM HEPES, pH 7.4), overlaid on a solution for density gradient centrifugation use (Ficoll solution) and then centrifuged at room temperature for 40 minutes at 450×g, thereby separating monocyte fraction and granulocyte fraction. The granulocyte fraction was washed once with buffer B (140 mM NaCl, 5 mM KCl, 1 mM CaCl2, 1 mM MgCl2, 5 mM glucose and 10 mM HEPES, pH 7.4) and suspended in buffer C (20 mM Bis-Tris, 5 mM dithioerythritol, 2 mM EGTA and 50 mM sodium acetate, pH 6.5) containing a protease inhibitor (50 μM phenyl-methyl-sulfonyl-fluoride, 5 μM pepstatin A, 40 μM leupeptin, 20 μM aprotinin or 2 mM benzamidine) and then the cells were disrupted using polytron and sonicator and subjected to ultracentrifugation (4° C., 100,000×g, 60 minutes) to give a soluble fraction.
2) The thus obtained soluble fraction was applied to a column of 1.6×10 cm packed with Q Sepharose which had been equilibrated with buffer C. Next, the column was washed with 300 ml of buffer C to remove non-absorbed protein. Phosphodiesterase was eluted with 200 ml of buffer C having 0.05 to 1.25M linear gradient of sodium acetate to collect 40 fractions each containing 5.0 ml eluate. Each fraction was checked for cAMP- and cGMP-metabolizing phosphodiesterase activities. Fractions having no cGMP- but cAMP-metabolizing activity and showing disappearance of the metabolizing activity by 10 μM rolipram (a type IV phosphodiesterase selective inhibitor) were collected to be used as a stock solution for the examination of type IV phosphodiesterase inhibition activity.
3) A predetermined amount of each compound to be tested was subjected to 10 minutes of reaction at 30° C. in a reaction mixture containing 40 mM Tris-HCl (pH 8.0), 5 mM MgCl2, 4 mM 2-mercaptoethanol, 0.3 μM cilostamide (a type III phosphodiesterase selective inhibitor), 1 μM cAMP, 10 nM ^3 H-cAMP and the type IV phosphodiesterase stock solution. The reaction solution was boiled at 90° C. for 1 minute, ice-cooled, mixed with 1 unit of 5'-nucleotidase and then subjected to 10 minutes of reaction at 30° C., and the reaction was stopped by the addition of 1 ml of methanol. The reaction solution was passed through a Dowex 1×8 column to adsorb un-hydrolyzed material and then the radioactivity was measured.
4) Concentration of each compound to be tested which inhibits 50% of the metabolic activity of type IV phosphodiesterase was calculated and expressed as IC50. (2) Method for measuring the activity to inhibit various phosphodiesterase isozymes
Results: The inhibition activity (IC50) value for h type of phosphodiesterase (Type I, Type II, Type III, e IV, and Type V) is shown in the following table.

Turning to `CCc1cc(C)c2c(-c3cccc(Br)c3)cc(=O)n(CC)c2n1` [Example 31, 4-(3-bromophenyl)-1,7-diethyl-5-methyl-1,8-naphthyridin-2(1H)-one], the results for the IC50 (against type I phosphodiesterase; in experiment [1]; in experiment [2]) were 0.0043 µM, more than 30 µM and more than 30 µM, respectively.
Take `CCc1cc(C)c2c(-c3ccccc3)cc(=O)n(C)c2n1` [Example 26, 7-Ethyl-1,5-dimethyl-4-phenyl-1,8-naphthyridin-2(1H)-one]: the IC50 on type I phosphodiesterase came to 0.0234 µM; in experiment [1], 56.2 µM; in experiment [2] it was 84.9 µM.
Take `CCCn1c(=O)cc(-c2cccc(Br)c2)c2c(C)cc(CC)nc21` [Example 33, 4-(3-Bromophenyl)-7-ethyl-5-methyl-1-propyl-1,8-naphthyridin-2(1H)-one]: the IC50 at type I phosphodiesterase was 0.0143 µM; in experiment [1], 17.7 µM; in experiment [2], more than 30 µM.
As for `CCc1cc(C)c2c(-c3cccc(Cl)c3)cc(=O)n(C)c2n1` [Example 27, 4-(3-Chlorophenyl)-7-ethyl-1,5-dimethyl-1,8-naphthyridin-2(1H)-one], the IC50 against type I phosphodiesterase was 0.0213 µM; in experiment [1], 15.5 µM; in experiment [2], more than 30 µM.
On to `CCc1cc(C)c2c(-c3cccc(Cl)c3)cc(=S)n(C)c2n1` [Example 43, 4-(3-chlorophenyl)-7-ethyl-1,5-dimethyl-1,8-naphthyridine-2(1H)-thione], for which the 50% inhibitory concentration (IC50) was 0.016 µM against type I phosphodiesterase, more than 30 µM in experiment [1] and more than 30 µM in experiment [2].
Take `CCn1c(=O)cc(-c2ccccc2)c2c(C)cc(C)nc21` [Example 38, 1-Ethyl-5,7-dimethyl-4-phenyl-1,8-naphthyridin-2(1H)-one]: the results for the IC50 (at type I phosphodiesterase; in experiment [1]; in experiment [2]) were 0.0124 µM, more than 30 µM and more than 30 µM, respectively.
With `CCc1cc(C)c2c(-c3cccc(Cl)c3)cc(=O)n(C3CC3)c2n1` [Example 35, 4-(3-Chlorophenyl)-1-cyclopropyl-7-ethyl-5-methyl-1,8-naphthyridin-2(1H)-on], the IC50 on type I phosphodiesterase is 0.0242 µM; in experiment [1], 34.4 µM; in experiment [2], 21.9 µM.
Consider `CCn1c(=O)cc(-c2cccc(Br)c2)c2c(C)cc(C)nc21` [Example 30, 4-(3-Bromophenyl)-1-ethyl-5,7-dimethyl-1,8-naphthyridin-2(1H)-one], for which the figures for the concentration for half-maximal inhibition (IC50) (on type I phosphodiesterase; in experiment [1]; in experiment [2]) were 0.0099 µM, 10.9 µM and 31.2 µM, respectively.
`Cc1cc(C)c2c(-c3cccc(Cl)c3)cc(=O)n(C)c2n1` [Example 24, 4-(3-chlorophenyl)-1,5,7-trimethyl-1,8-naphthyridin-2(1H)-one]: the figures for the IC50 (against type I phosphodiesterase; in experiment [1]; in experiment [2]) were 0.0419 µM, 21.5 µM and 98.3 µM, respectively.
Turning to `CCn1c(=O)cc(-c2cccc(Cl)c2)c2cccnc21` [Example 15, 4-(3-Chlorophenyl)-1-ethyl-1,8-naphthyridin-2(1H)-one], the half-inhibitory concentration (IC50) amounted to 0.0338 µM against type I phosphodiesterase, 50.3 µM in experiment [1] and 58.9 µM in experiment [2].
Taken in the same sequence, the figures for `CCc1cc(C)c2c(C3CCCCC3)cc(=O)n(CC)c2n1` [Example 49, 4-cyclohexyl-1,7-diethyl-5-methyl-1,8-naphthyridin-2(1H)-one] were 0.0337 µM, 27.3 µM and 30.2 µM.
For `CCn1c(=O)cc(C2CCCCC2)c2cccnc21` [Example 46, 4-cyclohexyl-1-ethyl-1,8-naphthyridin-2(1H)-one 0.45 hydrochloride 0.25 hydrate], the IC50 against type I phosphodiesterase was 0.0389 µM; in experiment [1], more than 30 µM; in experiment [2], more than 30 µM.
On to `CCc1cc(C)c2c(-c3ccccc3)cc(=O)n(CC)c2n1` [Example 40, 1,7-Diethyl-5-methyl-4-phenyl-1,8-naphthyridin-2(1H)-one], for which the IC50 against type I phosphodiesterase was 0.0129 µM; in experiment [1], 32.3 µM; in experiment [2] it was 31.9 µM.
On to `CCn1c(=O)cc(-c2cccc(Cl)c2)c2c(C)cc(C)nc21` [Example 29, 4-(3-Chlorophenyl)-1-ethyl-5,7-dimethyl-1,8-naphthyridin-2(1H)-one], for which the IC50 on type I phosphodiesterase was 0.0116 µM; in experiment [1] it was 14.3 µM; in experiment [2] it was more than 30 µM.

Usually IC50 stands for the midpoint of a concentration-inhibition curve. Low values mean higher potency, high ones lower potency.
